In patent US3958011A, “Compositions of tri-n-propylacetic acid and salts thereof and treatment of neurological disorders with such compositions” (priority 1972, dated 1976):

Legend:
[1] = test system: mice; assay: Posture reflex (hypnotic properties); type: in vivo, mice (OF 1); settings: Mus musculus, ip, i.p., read-out: HD50, loss of posture reflex
Method: Male mice of the OF 1 strain, weighing about 25 g. were divided into batches of 10. The animals of each batch were given an intraperitoneal dose of the compound to be studied so that each batch received a higher dose than the preceding batch.
The numbers of animals which lost the reflex at various times after administration were noted.
In this way, the HD50 at different times after administration was determined i.e. the dose of the compound under study which caused 50% of the animals to lose the posture reflex at a given time after administration.

[2] = test system: mice; assay: Traction test (myorelaxant properties); type: in vivo, mice (OF 1); settings: for Number of animals which have lost the traction reflex: groups of 10; for ED50: Mus musculus, ip, read-out: ED50, loss of traction reflex
Method: This test enables sense of balance as well as muscular tonus and strength to be evaulated.
The test is carried out on groups of 10 male mice of the OF 1 strain weighing about 25 g. It consists of suspending the mice by the front paws to a horizontally stretched wire. Note is first taken of the time required by a group of control animals to effect recovery i.e. to place at least one of their back paws on the wire.

[3] = Acute toxicity (LD50), technique of Karber and Behrens; settings: mouse, in vivo, ip
Method: (§1) The LD50 was determined on the mouse by intraperitonel route using the technique of KARBER and BEHRENS.

[4] = test system: mouse; assay: as above; settings: intraperitoneal LD50, in words
Method: as §1

[5] = test system: mice; assay: Evasion test (tranquillizing properties); type: in vivo; settings: for Total number of exits per batch: batch of 28 mice; for Average time before first exit: controls 14
Method: This test enables the exploring capacities of mice to be studied. A parallelepipedic lidless plywood box is used which contains an inclined plane, also of plywood, covered with a fine mesh. A horizontal datum line is marked on the inclined plane 2 cm below the point at which the plane bears on the box edge. The whole device is placed in an artificially lit room away from all shrill noise. Any crossing, in an upward direction, by a mouse of the datum line is termed an "exit".
The test was carried out on batches of 28 mice weighing about 22 g. The animals of each batch received an intraperitoneal dose of the compound to be studied so that each batch received a higher dose than the preceding batch.
Thirty minutes after administration of the compound, the animals were placed in the box by batches and kept at the bottom for 10 seconds by a movable board. The average length or time after which the first exit occurred was noted as well as the total number of exits per batch every minute for 5 minutes. The same details were also recorded for a control batch which had not received the compound. The following results were obtained with the preferred compound of the invention namely sodium tri-n-propylacetate: […]

[6] = Rota rod test (neurotoxicity); type: in vivo; settings: mouse, ip, mice, intraperitoneal, 30 min after administration, read-out: NTD50 (neurotoxic dose 50) in the rota rod test
Method: The test used was that known as the rota rod test (BOISSIER-Therapie 1958, XIII, pp. 1074-1118). This test aims at enabling the animals' ability to coordinate their movements to be evaluated. It is carried out on batches of 10 mice each weighing about 25 g. The compound to be tested is administered by intraperitoneal route to the animals of each batch so that each batch receives a higher dose than that given to the preceding batch. Thirty minutes after administration, the mice are placed for two minutes on a wooden roller of 4.8 cm diameter which turns at the rate of 4 revolutions per minute. The roller has a rough surface to prevent the animals from slipping.
By this means, the neurotoxic dose 50 (NTD 50) can be determined, i.e. the dose of the compound with which one half of the animals can no longer stay on the roller during the period of time fixed as the reference period.
In order to obtain an activity index figure 30 minutes after administration the rota rod test described above was also performed using for comparison a known myorelaxant, namely mephenesin.

[7] = test system: mice; assay: Maximum electroshock seizure (anticonvulsant action); type: in vivo, mice (OF 1)
Method: This seizure is characterized in the mouse by extension of the back paws for 5 to 10 seconds. The extension is similar to that observed during the tonicoclonic seizures provoked by chemical convulsants such as pentylenetetrazol or strychnine.
The test was carried out on batches of 10 mice of the OF 1 strain weighing about 22 g. […] Fifteen minutes later, each animal received an electric shock of twice threshold intensity (about 60 volts).
This latter value is indicated by the symbol HD50 or hypnotic dose 50 and the efficacy index by the fraction: [formula]

In the case of `CCCC(CCC)(CCC)C(=O)[O-].[Na+]` [Sodium tri-n-propylacetate, sodium tri-n-propylacetate], the ED50 ([1]; 0.25 h, 15 min. after administration) was 120 mg/kg, the ED50 ([1]; 0.5 h, 30 min. after administration) was 130 mg/kg and the ED50 ([1]; 0.75 h, 45 min. after administration) was 150 mg/kg. The ED50 ([1]; 1 h, 60 min. after administration) was 200 mg/kg, the “Number of animals which have lost the traction reflex” value ([2]; 20 mg/kg i.p., 15 min.) was 1 and the “Number of animals which have lost the traction reflex” value ([2]; 20 mg/kg i.p., 30 min.) was 2. For the same compound, the “Number of animals which have lost the traction reflex” value ([2]; 20 mg/kg i.p., 45 min.) was 0, the “Number of animals which have lost the traction reflex” value ([2]; 50 mg/kg i.p., 15 min.) was 0 and the “Number of animals which have lost the traction reflex” value ([2]; 50 mg/kg i.p., 30 min.) was 1. For the same compound, the “Number of animals which have lost the traction reflex” value ([2]; 50 mg/kg i.p., 45 min.) was 2, the “Number of animals which have lost the traction reflex” value ([2]; 75 mg/kg i.p., 15 min.) was 3 and the “Number of animals which have lost the traction reflex” value ([2]; 75 mg/kg i.p., 30 min.) was 0. For the same compound, the “Number of animals which have lost the traction reflex” value ([2]; 75 mg/kg i.p., 45 min.) was 1, the “Number of animals which have lost the traction reflex” value ([2]; 100 mg/kg i.p., 15 min.) was 8 and the “Number of animals which have lost the traction reflex” value ([2]; 100 mg/kg i.p., 30 min.) was 1. The “Number of animals which have lost the traction reflex” value ([2]; 100 mg/kg i.p., 45 min.) was 0, the “Number of animals which have lost the traction reflex” value ([2]; 150 mg/kg i.p., 15 min.) was 10 and the “Number of animals which have lost the traction reflex” value ([2]; 150 mg/kg i.p., 30 min.) was 10. For the same compound, the “Number of animals which have lost the traction reflex” value ([2]; 150 mg/kg i.p., 45 min.) was 9, the ED50 ([2]; 0.25 h) was 80 mg/kg and the ED50 ([2]; 0.5 h) was 110 mg/kg. The ED50 ([2]; 0.75 h) was 130 mg/kg, the “Time of maximum myorelaxant activity after administration” value ([2]; intraperitoneal) was 15 min and the “Activity index: NTD50/ED50” value ([2]; rota rod NTD50 / traction ED50, 30 minutes after administration) was 1.1. For the same compound, the LD50 [3] was 327 mg/kg, the selectivity ratio [3] was 20 to 80 and the “Acute toxicity compared with diazepam” value [4] was “much less toxic than diazepam”. For the same compound, the “Total number of exits per batch” value ([5]; 50 mg/kg i.p., 1 min.) was 54, the “Total number of exits per batch” value ([5]; 50 mg/kg i.p., 2 min.) was 44 and the “Total number of exits per batch” value ([5]; 50 mg/kg i.p., 3 min.) was 43. For the same compound, the “Total number of exits per batch” value ([5]; 50 mg/kg i.p., 4 min.) was 41, the “Total number of exits per batch” value ([5]; 50 mg/kg i.p., 5 min.) was 28 and the “Average time before first exit” value ([5]; 50 mg/kg i.p.) was 25 s. For the same compound, the “Total number of exits per batch” value ([5]; 75 mg/kg i.p., 1 min.) was 44, the “Total number of exits per batch” value ([5]; 75 mg/kg i.p., 2 min.) was 37 and the “Total number of exits per batch” value ([5]; 75 mg/kg i.p., 3 min.) was 31. For the same compound, the “Total number of exits per batch” value ([5]; 75 mg/kg i.p., 4 min.) was 34, the “Total number of exits per batch” value ([5]; 75 mg/kg i.p., 5 min.) was 28 and the “Average time before first exit” value ([5]; 75 mg/kg i.p.) was 21 s. For the same compound, the TD50 at 0.5 h [6] was 120 mg/kg, the ED50 ([7]; Mus musculus, ip, 0.25 h, i.p., 15 min after administration, protection of 50% against tonic seizures) was 130 mg/kg and the “Efficacy index (HD50 compared with ED50)” value ([7]; electroshock ED50 versus hypnotic dose 50) was 1.0.
